Measurements reported in patent publication US10941152B2, “Pyrazole compounds as modulators of FSHR and uses thereof” (TOCOPHERX, INC., priority 2014, dated 2021).

What was measured:
[1] = biological target: T1, FSHR (Homo sapiens, UniProt P23945); assay: EC50 of cyclic AMP production in CHO FSHR cells + EC20 FSH (Assay A); format: cell-based; conditions: cyclic AMP production in CHO FSHR cells + EC20 FSH (0.265 pM), HTRF
T1 construct: expressed in transfected cells; host or cells: CHO (Cho-FSHR-LUC-1-1-43)
T1 sequence (P23945 18-695): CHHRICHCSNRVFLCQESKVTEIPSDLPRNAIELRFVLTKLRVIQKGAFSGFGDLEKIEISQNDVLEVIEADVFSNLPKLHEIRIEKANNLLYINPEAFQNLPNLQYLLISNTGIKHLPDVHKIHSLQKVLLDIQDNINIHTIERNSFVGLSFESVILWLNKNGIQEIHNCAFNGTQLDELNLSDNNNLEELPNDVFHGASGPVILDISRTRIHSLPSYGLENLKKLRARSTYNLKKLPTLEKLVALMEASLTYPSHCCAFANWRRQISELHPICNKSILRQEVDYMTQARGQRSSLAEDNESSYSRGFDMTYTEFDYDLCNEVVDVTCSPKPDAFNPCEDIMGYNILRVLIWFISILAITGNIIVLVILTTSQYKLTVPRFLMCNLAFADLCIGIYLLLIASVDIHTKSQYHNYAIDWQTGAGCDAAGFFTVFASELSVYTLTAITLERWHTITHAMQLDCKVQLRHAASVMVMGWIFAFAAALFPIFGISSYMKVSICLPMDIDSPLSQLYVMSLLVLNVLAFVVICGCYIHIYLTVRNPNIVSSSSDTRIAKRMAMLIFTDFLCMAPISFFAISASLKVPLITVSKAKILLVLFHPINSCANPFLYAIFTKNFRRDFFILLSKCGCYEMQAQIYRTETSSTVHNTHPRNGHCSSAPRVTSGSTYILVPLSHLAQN
Method in brief: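 cAMP was detected by HTRF as the 665/620 nm ratio. The CHO-FSHR cells had first been exposed for 1 h at 37° C to test compound together with 0.265 pM FSH (EC20) and 200 μM IBMX. Responses are given as percent of the FSH standard maximum.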

[2] = biological target: T2, follicle-stimulating hormone (FSH) receptor (Rattus norvegicus, UniProt P20395); assay: Rat granulosa EC50 FSH (Assay B); format: cell-based
T2 construct: endogenous in cells; host or cells: rat granulosa cells
T2 sequence (P20395 18-692): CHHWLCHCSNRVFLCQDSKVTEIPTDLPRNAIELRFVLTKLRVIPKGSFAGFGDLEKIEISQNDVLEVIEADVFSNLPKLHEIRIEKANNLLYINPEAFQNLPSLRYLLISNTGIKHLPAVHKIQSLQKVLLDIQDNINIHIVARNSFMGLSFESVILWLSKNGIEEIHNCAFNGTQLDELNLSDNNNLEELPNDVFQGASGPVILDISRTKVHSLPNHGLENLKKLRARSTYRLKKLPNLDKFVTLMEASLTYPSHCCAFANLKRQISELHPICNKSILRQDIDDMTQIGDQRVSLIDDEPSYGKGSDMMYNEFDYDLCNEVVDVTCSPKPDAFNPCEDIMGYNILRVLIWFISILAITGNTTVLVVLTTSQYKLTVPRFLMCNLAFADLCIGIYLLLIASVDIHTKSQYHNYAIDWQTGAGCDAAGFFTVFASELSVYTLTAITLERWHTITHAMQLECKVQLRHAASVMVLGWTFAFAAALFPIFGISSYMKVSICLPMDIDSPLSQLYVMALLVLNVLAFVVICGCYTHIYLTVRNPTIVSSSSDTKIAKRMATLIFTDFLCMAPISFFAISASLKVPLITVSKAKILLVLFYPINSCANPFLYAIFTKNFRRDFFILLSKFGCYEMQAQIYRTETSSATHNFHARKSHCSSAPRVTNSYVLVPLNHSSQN
Description: Example 25. Rat granulosa EC50 FSH (Assay B)
The assay was performed pursuant to the teaching of Yanofsky et al. (2006) Allosteric activation of the follicle-stimulating hormone (FSH) receptor by selective, nonpeptide agonists (JBC 281(19): 13226-13233, which is incorporated by reference in the disclosure of the invention).

| SMILES | EC50 [1] [nM] | EC50 [2] [nM] |
| --- | --- | --- |
| CONC(=O)c1cncc(-c2cc3c(cc2OC)OCc2c(C(=O)N4CCOCC4(C)C)nn(-c4cc(Cl)cc(Cl)c4)c2-3)c1 [Compound 96, 5-(1-(3,5-dichlorophenyl)-3-(3,3-dimethylmorpholine-4-carbonyl)-7-methoxy-1,4-dihydrochromeno[4,3-c]pyrazol-8-yl)-N-methoxynicotinamide] | < 10 | < 10 |
| COc1cc2c(cc1-c1cnn(CC(N)=O)c1)-c1c(c(C(=O)N3CCOCC3(C)C)nn1-c1cc(F)cc(F)c1)CO2 [Compound 99, 2-(4-(1-(3,5-difluorophenyl)-3-(3,3-dimethylmorpholine-4-carbonyl)-7-methoxy-1,4-dihydrochromeno[4,3-c]pyrazol-8-yl)-1H-pyrazol-1-yl)acetamide] | < 10 | 10 to 100 |
| CNC(=O)c1cc(-c2cc3c(cc2OC)OCc2c(C(=O)N(C)C(C)(C)C)nn(-c4cc(F)cc(F)c4)c2-3)cnc1N [Compound 100, 8-(6-amino-5-(methylcarbamoyl)pyridin-3-yl)-N-tert-butyl-1-(3,5-difluorophenyl)-7-methoxy-N-methyl-1,4-dihydrochromeno[4,3-c]pyrazole-3-carboxamide] | < 10 | 10 to 100 |
| COc1cc2c(cc1-c1cncc(C(=O)N(C)C)c1)-c1c(c(C(=O)N3CCOCC3(C)C)nn1-c1cc(Cl)cc(Cl)c1)CO2 [Compound 101, 5-(1-(3,5-dichlorophenyl)-3-(3,3-dimethylmorpholine-4-carbonyl)-7-methoxy-1,4-dihydrochromeno[4,3-c]pyrazol-8-yl)-N,N-dimethylnicotinamide] | < 10 | 10 to 100 |
| COc1cc2c(cc1-c1ccccn1)-c1c(c(C(=O)N3CCC(O)CC3(C)C)nn1-c1cc(Cl)cc(Cl)c1)CO2 (stereo not drawn) [Compound 102, (1-(3,5-dichlorophenyl)-7-methoxy-8-(pyridin-2-yl)-1,4-dihydrochromeno[4,3-c]pyrazol-3-yl)(4-hydroxy-2,2-dimethylpiperidin-1-yl)methanone] | < 10 | 10 to 100 |
| COc1cc2c(cc1-c1cncc(C(N)=O)c1)-c1c(c(C(=O)N(C)C(C)(C)C(N)=O)nn1-c1cc(F)cc(F)c1)CO2 [Compound 104, N-(1-amino-2-methyl-1-oxopropan-2-yl)-8-(5-carbamoylpyridin-3-yl)-1-(3,5-difluorophenyl)-7-methoxy-N-methyl-1,4-dihydrochromeno[4,3-c]pyrazole-3-carboxamide] | 10 to 100 | > 500 |
| COc1cc2c(cc1-c1cncc(C#N)c1)-c1c(c(C(=O)N(C)C(C)(C)C#N)nn1-c1cc(F)cc(F)c1)CO2 [Compound 105, N-(2-cyanopropan-2-yl)-8-(5-cyanopyridin-3-yl)-1-(3,5-difluorophenyl)-7-methoxy-N-methyl-1,4-dihydrochromeno[4,3-c]pyrazole-3-carboxamide] | < 10 | 10 to 100 |
| COc1cc2c(cc1-c1ccn(C)n1)-c1c(c(C(=O)N(C)C(C)(C)C#N)nn1-c1cc(F)cc(F)c1)CO2 [Compound 106, N-(2-cyanopropan-2-yl)-1-(3,5-difluorophenyl)-7-methoxy-N-methyl-8-(1-methyl-1H-pyrazol-3-yl)-1,4-dihydrochromeno[4,3-c]pyrazole-3-carboxamide] | 10 to 100 | > 500 |
| COc1cc2c(cc1-c1cncc(C(=O)O)c1)-c1c(c(C(=O)N(C)C(C)(C)C#N)nn1-c1cc(F)cc(F)c1)CO2 [Compound 107, 5-(3-((2-cyanopropan-2-yl)(methyl)carbamoyl)-1-(3,5-difluorophenyl)-7-methoxy-1,4-dihydrochromeno[4,3-c]pyrazole-8-yl)nicotinic acid] | < 10 | 101 to 500 |
| COc1cc2c(cc1-c1cc(C(N)=O)ncc1F)-c1c(c(C(=O)N(C)C(C)(C)C#N)nn1-c1cc(F)cc(F)c1)CO2 [Compound 109, 8-(2-carbamoyl-5-fluoropyridin-4-yl)-N-(2-cyanopropan-2-yl)-1-(3,5-difluorophenyl)-7-methoxy-N-methyl-1,4-dihydrochromeno[4,3-c]pyrazole-3-carboxamide] | < 10 | 10 to 100 |

Results, then the compound that gave them:

| EC50 [1] [nM] | EC50 [2] [nM] | SMILES |
| --- | --- | --- |
| < 10 | < 10 | COc1cc2c(cc1-c1cc(F)cc(C(N)=O)c1)-c1c(c(C(=O)N(C)C(C)(C)C)nn1-c1cc(Cl)cc(Cl)c1)CO2 [Compound 97, N-tert-butyl-8-(3-carbamoyl-5-fluorophenyl)-1-(3,5-dichlorophenyl)-7-methoxy-N-methyl-1,4-dihydrochromeno[4,3-c]pyrazole-3-carboxamide] |
| < 10 | 101 to 500 | COc1cc2c(cc1-c1ccccc1C(N)=O)-c1c(c(C(=O)N(C)C(C)(C)C)nn1-c1cc(Cl)cc(Cl)c1)CO2 [Compound 98, N-tert-butyl-8-(2-carbamoylphenyl)-1-(3,5-dichlorophenyl)-7-methoxy-N-methyl-1,4-dihydrochromeno[4,3-c]pyrazole-3-carboxamide] |
| < 10 | 10 to 100 | COc1cc2c(cc1-c1cncc(CO)c1)-c1c(c(C(=O)N(C)C(C)(C)C#N)nn1-c1cc(Cl)cc(Cl)c1)CO2 [Compound 108, N-(2-cyanopropan-2-yl)-1-(3,5-dichlorophenyl)-8-(5-(hydroxymethyl)pyridin-3-yl)-7-methoxy-N-methyl-1,4-dihydrochromeno[4,3-c]pyrazole-3-carboxamide] |
| < 10 | 10 to 100 | COc1cc2c(cc1-c1cncc(C(N)=O)c1)-c1c(c(C(=O)N(C)C(C)(C)C#N)nn1-c1cc(F)cc(Cl)c1)CO2 [Compound 110, 8-(5-carbamoylpyridin-3-yl)-1-(3-chloro-5-fluorophenyl)-N-(2-cyanopropan-2-yl)-7-methoxy-N-methyl-1,4-dihydrochromeno[4,3-c]pyrazole-3-carboxamide] |
| 10 to 100 | 101 to 500 | COc1cc2c(cc1-c1nccc(C(N)=O)n1)-c1c(c(C(=O)N(C)C(C)(C)C)nn1-c1cc(Cl)cc(Cl)c1)CO2 [Compound 111, N-tert-butyl-8-(4-carbamoylpyrimidin-2-yl)-1-(3,5-dichlorophenyl)-7-methoxy-N-methyl-1,4-dihydrochromeno[4,3-c]pyrazole-3-carboxamide] |
| 10 to 100 | 101 to 500 | COc1cc2c(cc1-c1nccnc1C#N)-c1c(c(C(=O)N(C)C(C)(C)C)nn1-c1cc(Cl)cc(Cl)c1)CO2 [Compound 112, N-tert-butyl-8-(3-cyanopyrazin-2-yl)-1-(3,5-dichlorophenyl)-7-methoxy-N-methyl-1,4-dihydrochromeno[4,3-c]pyrazole-3-carboxamide] |
| < 10 | 10 to 100 | COc1cc2c(cc1-c1cc(C(N)=O)ccn1)-c1c(c(C(=O)N(C)C(C)(C)C)nn1-c1cc(Cl)cc(Cl)c1)CO2 [Compound 113, N-tert-butyl-8-(4-carbamoylpyridin-2-yl)-1-(3,5-dichlorophenyl)-7-methoxy-N-methyl-1,4-dihydrochromeno[4,3-c]pyrazole-3-carboxamide] |
| 10 to 100 | 101 to 500 | COc1cc2c(cc1-c1cc(C(N)=O)ncn1)-c1c(c(C(=O)N(C)C(C)(C)C)nn1-c1cc(Cl)cc(Cl)c1)CO2 [Compound 114, N-tert-butyl-8-(6-carbamoylpyrimidin-4-yl)-1-(3,5-dichlorophenyl)-7-methoxy-N-methyl-1,4-dihydrochromeno[4,3-c]pyrazole-3-carboxamide] |
